Data from PubChem BioAssay AID1259407 (Chemical Carcinogenesis Research Information System (CCRIS), 2018).
Active and inactive are the calls of the source. The rule behind the calls is not given here.

System: CCRIS mutagenicity, Ames/micronucleus/aberration tests
Test: CCRIS mutagenicity studies

Measured: mutagenic call

C=C1C[C@@]23CC[C@H]4[C@@](C)(CCC[C@@]4(C)C(=O)O)[C@@H]2CC[C@]1(O[C@@H]1O[C@H](CO)[C@@H](O)[C@H](O[C@@H]2O[C@H](CO)[C@@H](O)[C@H](O)[C@H]2O)[C@H]1O[C@@H]1O[C@H](CO)[C@@H](O)[C@H](O)[C@H]1O)C3
inactive: Test System: AMES SALMONELLA TYPHIMURIUM, Strain/Indicator: TM677, Metabolic Activation: RAT, LIVER, S-9, AROCLOR 1254, Method: PREINCUBATION inactive; negative

CCCCOC(C)=O
inactive: Test System: AMES SALMONELLA TYPHIMURIUM, Strain/Indicator: TA97, Metabolic Activation: HAMSTER, LIVER, S-9, AROCLOR 1254 (10 OR 30%), Method: PREINCUBATION inactive; negative | Test System: AMES SALMONELLA TYPHIMURIUM, Strain/Indicator: TA97, Metabolic Activation: NONE, Method: PREINCUBATION inactive; negative | Test System: AMES SALMONELLA TYPHIMURIUM, Strain/Indicator: TA97, Metabolic Activation: RAT, LIVER, S-9, AROCLOR 1254 (10 OR 30%), Method: PREINCUBATION inactive; negative | Test System: AMES SALMONELLA TYPHIMURIUM, Strain/Indicator: TA98, Metabolic Activation: HAMSTER, LIVER, S-9, AROCLOR 1254 (10 OR 30%), Method: PREINCUBATION inactive; negative | Test System: AMES SALMONELLA TYPHIMURIUM, Strain/Indicator: TA98, Metabolic Activation: RAT, LIVER, S-9, AROCLOR 1254 (10 OR 30%), Method: PREINCUBATION inactive; negative | Test System: AMES SALMONELLA TYPHIMURIUM, Strain/Indicator: TA98, Metabolic Activation: RAT, LIVER, S-9, KC 500, Method: PREINCUBATION inactive; negative | Test System: AMES SALMONELLA TYPHIMURIUM, Strain/Indicator: TA98, Metabolic Activation: RAT, LIVER, S-9, PHENOBARBITAL AND BETA-NAPHTHOFLAVONE, Method: PREINCUBATION inactive; negative | Test System: AMES SALMONELLA TYPHIMURIUM, Strain/Indicator: TA100, Metabolic Activation: HAMSTER, LIVER, S-9, AROCLOR 1254 (10 OR 30%), Method: PREINCUBATION inactive; negative | Test System: AMES SALMONELLA TYPHIMURIUM, Strain/Indicator: TA100, Metabolic Activation: RAT, LIVER, S-9, AROCLOR 1254 (10 OR 30%), Method: PREINCUBATION inactive; negative | Test System: AMES SALMONELLA TYPHIMURIUM, Strain/Indicator: TA100, Metabolic Activation: RAT, LIVER, S-9, KC 500, Method: PREINCUBATION inactive; negative | Test System: AMES SALMONELLA TYPHIMURIUM, Strain/Indicator: TA100, Metabolic Activation: RAT, LIVER, S-9, PHENOBARBITAL AND BETA-NAPHTHOFLAVONE, Method: PREINCUBATION inactive; negative | Test System: AMES SALMONELLA TYPHIMURIUM, Strain/Indicator: TA102, Metabolic Activation: NONE, Method: PREINCUBATION inactive; negative | Test System: AMES SALMONELLA TYPHIMURIUM, Strain/Indicator: TA102, Metabolic Activation: RAT, LIVER, S-9, PHENOBARBITAL AND BETA-NAPHTHOFLAVONE, Method: PREINCUBATION inactive; negative | Test System: AMES SALMONELLA TYPHIMURIUM, Strain/Indicator: TA104, Metabolic Activation: NONE, Method: PREINCUBATION inactive; negative | Test System: AMES SALMONELLA TYPHIMURIUM, Strain/Indicator: TA104, Metabolic Activation: RAT, LIVER, 2-9, PHENOBARBITAL AND BETA-NAPHTHOFLAVONE, Method: PREINCUBATION inactive; negative | Test System: AMES SALMONELLA TYPHIMURIUM, Strain/Indicator: TA104, Metabolic Activation: RAT, LIVER, S-9, PHENOBARBITAL AND BETA-NAPHTHOFLAVONE, Method: PREINCUBATION inactive; negative | Test System: AMES SALMONELLA TYPHIMURIUM, Strain/Indicator: TA1535, Metabolic Activation: HAMSTER, LIVER, S-9, AROCLOR 1254 (10 OR 30%), Method: PREINCUBATION inactive; negative | Test System: AMES SALMONELLA TYPHIMURIUM, Strain/Indicator: TA1535, Metabolic Activation: RAT, LIVER, S-9, AROCLOR 1254 (10 OR 30%), Method: PREINCUBATION inactive; negative | Test System: AMES SALMONELLA TYPHIMURIUM, Strain/Indicator: TA1535, Metabolic Activation: RAT, LIVER, S-9, KC 500, Method: PREINCUBATION inactive; negative | Test System: AMES SALMONELLA TYPHIMURIUM, Strain/Indicator: TA1535, Metabolic Activation: RAT, LIVER, S-9, PHENOBARBITAL AND BETA-NAPHTHOFLAVONE, Method: PREINCUBATION inactive; negative | Test System: AMES SALMONELLA TYPHIMURIUM, Strain/Indicator: TA1537, Metabolic Activation: HAMSTER, LIVER, S-9, AROCLOR 1254 (30%), Method: PREINCUBATION inactive; negative | Test System: AMES SALMONELLA TYPHIMURIUM, Strain/Indicator: TA1537, Metabolic Activation: RAT, LIVER, S-9, AROCLOR 1254 (30%), Method: PREINCUBATION inactive; negative | Test System: AMES SALMONELLA TYPHIMURIUM, Strain/Indicator: TA1537, Metabolic Activation: RAT, LIVER, S-9, KC 500, Method: PREINCUBATION inactive; negative | Test System: AMES SALMONELLA TYPHIMURIUM, Strain/Indicator: TA1537, Metabolic Activation: RAT, LIVER, S-9, PHENOBARBITAL AND BETA-NAPHTHOFLAVONE, Method: PREINCUBATION inactive; negative | Test System: AMES SALMONELLA TYPHIMURIUM, Strain/Indicator: TA1538, Metabolic Activation: NONE, Method: PREINCUBATION inactive; negative | Test System: AMES SALMONELLA TYPHIMURIUM, Strain/Indicator: TA1538, Metabolic Activation: RAT, LIVER, S-9, KC 500, Method: PREINCUBATION inactive; negative | Test System: E. COLI, Strain/Indicator: WP2UVRA/PKM101, Metabolic Activation: NONE, Method: PREINCUBATION inactive; negative | Test System: E. COLI, Strain/Indicator: WP2UVRA/PKM101, Metabolic Activation: RAT, LIVER, S-9, PHENOBARBITAL AND BETA-NAPHTHOFLAVONE, Method: PREINCUBATION inactive; negative | Test System: E. COLI, Strain/Indicator: WP2 UVRA, Metabolic Activation: NONE, Method: PREINCUBATION inactive; negative | Test System: E. COLI, Strain/Indicator: WP2UVRA, Metabolic Activation: NONE, Method: PREINCUBATION inactive; negative | Test System: E. COLI, Strain/Indicator: WP2 UVRA, Metabolic Activation: RAT, LIVER, S-9, KC 500, Method: PREINCUBATION inactive; negative | Test System: E. COLI, Strain/Indicator: WP2UVRA, Metabolic Activation: RAT, LIVER, S-9, PHENOBARBITAL AND BETA-NAPHTHOFLAVONE, Method: PREINCUBATION inactive; negative

ClC1(Cl)[C@H](c2ccccc2)[C@@H]1c1ccccc1
inactive: Test System: CHINESE HAMSTER V-79, Strain/Indicator: V-79 (HPRT)/6-THIOGUANINE, Metabolic Activation: NONE inactive; negative
